Data as given in ChEMBL document CHEMBL1201862, “PubChem BioAssay data set” (2004).
The source made the active and inactive calls.

How the values were obtained:
[1] = target: Intestinal-type alkaline phosphatase (Mus musculus, UniProt P24822); test: PubChem AID 488785; format: functional
[2] = target: T1, Alkaline phosphatase, tissue-nonspecific isozyme (Homo sapiens, UniProt P05186); test: TNAP enzyme inhibition by screening hits, dose response, selectivity assay for mouse IAP inhibitor project, biochemical, human TNAP, uHTS hits (AID 488906); format: functional
T1 sequence (P05186 whole entry): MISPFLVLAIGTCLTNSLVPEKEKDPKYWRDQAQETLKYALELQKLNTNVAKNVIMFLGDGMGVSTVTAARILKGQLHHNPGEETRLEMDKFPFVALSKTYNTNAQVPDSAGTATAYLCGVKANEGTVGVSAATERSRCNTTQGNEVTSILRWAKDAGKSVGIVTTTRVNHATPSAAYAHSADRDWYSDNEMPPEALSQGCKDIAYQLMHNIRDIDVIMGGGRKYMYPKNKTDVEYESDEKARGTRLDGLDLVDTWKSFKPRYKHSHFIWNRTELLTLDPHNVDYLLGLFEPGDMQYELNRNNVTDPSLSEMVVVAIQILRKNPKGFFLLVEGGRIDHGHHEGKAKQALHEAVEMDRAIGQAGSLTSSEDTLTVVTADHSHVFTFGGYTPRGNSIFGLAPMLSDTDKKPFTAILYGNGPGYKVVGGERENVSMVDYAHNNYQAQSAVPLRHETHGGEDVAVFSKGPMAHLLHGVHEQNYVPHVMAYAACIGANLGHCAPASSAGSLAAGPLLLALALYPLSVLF

[3] = target: Intestinal-type alkaline phosphatase (Homo sapiens, UniProt P09923); test: inhibition of human intestinal alkaline phosphatase – biochemical, dose response (AID 488876); format: functional
[4] = target: T2, Ubiquitin-conjugating enzyme E2 N (Homo sapiens, UniProt P61088); format: functional
T2 sequence (P61088 whole entry): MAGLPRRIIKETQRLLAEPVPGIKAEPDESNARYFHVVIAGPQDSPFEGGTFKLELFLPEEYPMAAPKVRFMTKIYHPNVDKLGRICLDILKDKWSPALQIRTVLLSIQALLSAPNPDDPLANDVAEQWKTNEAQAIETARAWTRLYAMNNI

Bcl-2-related protein A1 = target: T3, Bcl-2-related protein A1 (Mus musculus, UniProt Q07440); format: functional;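 further: confirmatory dose–response counterscreen on Bfl-1, used to check hits from a UBC13 polyubiquitin inhibitor campaign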
T3 sequence (Q07440 whole entry): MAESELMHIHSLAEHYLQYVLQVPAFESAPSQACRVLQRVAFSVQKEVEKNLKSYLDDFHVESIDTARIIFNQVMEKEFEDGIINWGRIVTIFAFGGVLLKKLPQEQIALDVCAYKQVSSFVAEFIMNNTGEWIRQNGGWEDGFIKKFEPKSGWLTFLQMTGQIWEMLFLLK

[5] = target: T2, Ubiquitin-conjugating enzyme E2 N; format: functional; remark: listed apart in the source
[6] = target: T4, Heat shock factor protein 1 (Mus musculus, UniProt P38532); test: decrease of HSF1-responsive luciferase luminescence – cell-based, NIH3T3, dose retest, confirmation (AID 2382); format: functional;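 further: NIH3T3 fibroblasts with HSF1-driven luciferase reporter stressed by proteasome inhibitor MG132; luminescence from HSF1-driven luciferase expression after 8 hours of MG132 stress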
T4 sequence (P38532 whole entry): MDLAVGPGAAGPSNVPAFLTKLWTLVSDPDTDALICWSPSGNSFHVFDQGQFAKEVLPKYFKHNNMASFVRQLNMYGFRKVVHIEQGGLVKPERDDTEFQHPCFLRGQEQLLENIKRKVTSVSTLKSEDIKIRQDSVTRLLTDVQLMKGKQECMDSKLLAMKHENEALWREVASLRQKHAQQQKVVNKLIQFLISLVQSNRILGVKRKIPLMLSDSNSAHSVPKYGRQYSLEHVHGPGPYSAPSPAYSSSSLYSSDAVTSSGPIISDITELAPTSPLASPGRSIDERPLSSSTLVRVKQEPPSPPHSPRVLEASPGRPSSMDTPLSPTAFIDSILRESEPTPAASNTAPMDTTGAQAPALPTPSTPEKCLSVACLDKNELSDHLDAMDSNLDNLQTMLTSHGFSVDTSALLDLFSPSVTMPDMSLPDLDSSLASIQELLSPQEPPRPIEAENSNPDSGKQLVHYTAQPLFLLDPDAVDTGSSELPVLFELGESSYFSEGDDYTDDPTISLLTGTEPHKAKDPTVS

[7] = target: T5, Calpain-2 catalytic subunit (Sus scrofa, UniProt P43367); test: m-calpain protease blockers, concentration series – biochemical, fluorogenic peptide substrate, dose response (AID 1420); format: functional
T5 sequence (P43367 whole entry): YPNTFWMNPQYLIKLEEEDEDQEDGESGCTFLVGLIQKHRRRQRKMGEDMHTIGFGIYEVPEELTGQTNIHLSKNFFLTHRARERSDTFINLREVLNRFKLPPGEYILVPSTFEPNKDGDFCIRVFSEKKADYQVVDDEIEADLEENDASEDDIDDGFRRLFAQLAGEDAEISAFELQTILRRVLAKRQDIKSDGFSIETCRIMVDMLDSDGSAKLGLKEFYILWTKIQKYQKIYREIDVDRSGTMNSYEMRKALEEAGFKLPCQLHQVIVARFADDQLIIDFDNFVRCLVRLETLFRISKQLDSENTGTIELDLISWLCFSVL

cells = format: functional
[8] = THP-1 cell cytotoxicity, dose response, cytotoxicity control for non-replicating M. tuberculosis project (AID 489025); format: functional
[9] = target: T6, Microphthalmia-associated transcription factor (Homo sapiens, UniProt O75030); test: reducers of TRPM1 reporter luminescence, concentration series – cell-based, SK-MEL-5, cherry-picked, set 3, MITF inhibitor project, dose response (AID 493073); format: functional;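 further: SK-MEL-5 melanoma cells with luciferase driven by the MITF target TRPM1 promoter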
T6 sequence (O75030 whole entry): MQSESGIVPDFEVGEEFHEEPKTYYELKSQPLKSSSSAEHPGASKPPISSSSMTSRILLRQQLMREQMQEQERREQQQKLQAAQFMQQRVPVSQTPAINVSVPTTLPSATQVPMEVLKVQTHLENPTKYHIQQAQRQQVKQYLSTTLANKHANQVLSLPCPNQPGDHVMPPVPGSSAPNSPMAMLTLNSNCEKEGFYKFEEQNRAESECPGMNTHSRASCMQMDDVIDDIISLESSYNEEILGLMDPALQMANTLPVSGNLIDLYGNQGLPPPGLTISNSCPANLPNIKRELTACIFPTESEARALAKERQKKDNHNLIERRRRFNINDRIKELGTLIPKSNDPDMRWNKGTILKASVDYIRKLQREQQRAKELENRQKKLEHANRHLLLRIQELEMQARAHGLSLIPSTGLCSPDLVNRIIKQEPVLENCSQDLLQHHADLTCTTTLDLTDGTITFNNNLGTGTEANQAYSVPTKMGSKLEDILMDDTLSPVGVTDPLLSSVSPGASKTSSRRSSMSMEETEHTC

[10] = HepG2 cell cytotoxicity, dose response, cytotoxicity control for non-replicating M. tuberculosis project (AID 489018); format: functional; details: Mycobacterium tuberculosis
[11] = Vero E6 cell cytotoxicity, dose response, cytotoxicity control for non-replicating M. tuberculosis project, secondary assay (AID 492998); format: functional, VeroE6; details: Vero C1008
HEK293 [12] = test: cells; format: functional, cell-based; details: Homo sapiens
HEK293 [13] = test: cells; format: functional, cell-based; details: Homo sapiens; remark: listed apart in the source
HEK293 [14] = test: inhibition of NOD1-driven NF-kB reporter – cell-based, luminescence, uHTS, primary screen (AID 1578); format: functional; details: Homo sapiens
HEK293 [15] = test: NOD2 signaling inhibitors in MDP-stimulated cells, cell-based, uHTS, luminescence (AID 2001); format: functional; details: Homo sapiens
HEK293 [16] = test: cells; format: functional, cell-based; details: Homo sapiens; remark: listed apart in the source
[17] = target: Nucleotide-binding oligomerization domain-containing protein 2 (Homo sapiens, UniProt Q9HC29); test: inhibition of NOD2-driven NF-kB reporter – cell-based, luminescence, uHTS, HEK293 (AID 1566); format: functional
Chain of Nucleotide-binding oligomerization domain-containing protein 2 (Q9HC29 whole entry, the tested form may be a part): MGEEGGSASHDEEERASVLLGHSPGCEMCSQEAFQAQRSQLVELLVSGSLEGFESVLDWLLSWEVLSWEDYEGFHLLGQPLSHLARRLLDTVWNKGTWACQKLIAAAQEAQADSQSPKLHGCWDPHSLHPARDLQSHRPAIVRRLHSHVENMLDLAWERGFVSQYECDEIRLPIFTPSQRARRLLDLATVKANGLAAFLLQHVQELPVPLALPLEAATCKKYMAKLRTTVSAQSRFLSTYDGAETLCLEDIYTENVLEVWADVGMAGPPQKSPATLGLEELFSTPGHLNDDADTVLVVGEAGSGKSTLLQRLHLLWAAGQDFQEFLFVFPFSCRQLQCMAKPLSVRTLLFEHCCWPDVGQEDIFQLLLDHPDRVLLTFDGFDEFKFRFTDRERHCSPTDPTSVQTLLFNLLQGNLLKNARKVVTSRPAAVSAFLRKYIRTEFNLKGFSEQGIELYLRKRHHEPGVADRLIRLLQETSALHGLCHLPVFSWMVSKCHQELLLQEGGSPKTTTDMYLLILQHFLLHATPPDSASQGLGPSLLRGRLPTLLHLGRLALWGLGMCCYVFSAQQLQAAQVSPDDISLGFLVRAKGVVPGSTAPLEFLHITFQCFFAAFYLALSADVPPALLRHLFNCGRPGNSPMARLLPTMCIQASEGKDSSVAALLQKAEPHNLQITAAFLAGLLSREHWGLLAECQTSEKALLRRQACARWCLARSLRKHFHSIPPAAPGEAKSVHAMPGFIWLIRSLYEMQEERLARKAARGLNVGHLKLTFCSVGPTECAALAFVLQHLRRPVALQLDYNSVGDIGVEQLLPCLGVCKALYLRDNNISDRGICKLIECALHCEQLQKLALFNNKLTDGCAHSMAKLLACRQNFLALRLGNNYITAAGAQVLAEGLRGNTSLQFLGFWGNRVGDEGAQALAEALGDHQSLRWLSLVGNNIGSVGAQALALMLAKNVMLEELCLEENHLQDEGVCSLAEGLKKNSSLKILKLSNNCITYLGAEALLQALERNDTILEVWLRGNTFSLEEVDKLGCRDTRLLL

Chain of Intestinal-type alkaline phosphatase (Mus musculus, UniProt P24822) (P24822 whole entry): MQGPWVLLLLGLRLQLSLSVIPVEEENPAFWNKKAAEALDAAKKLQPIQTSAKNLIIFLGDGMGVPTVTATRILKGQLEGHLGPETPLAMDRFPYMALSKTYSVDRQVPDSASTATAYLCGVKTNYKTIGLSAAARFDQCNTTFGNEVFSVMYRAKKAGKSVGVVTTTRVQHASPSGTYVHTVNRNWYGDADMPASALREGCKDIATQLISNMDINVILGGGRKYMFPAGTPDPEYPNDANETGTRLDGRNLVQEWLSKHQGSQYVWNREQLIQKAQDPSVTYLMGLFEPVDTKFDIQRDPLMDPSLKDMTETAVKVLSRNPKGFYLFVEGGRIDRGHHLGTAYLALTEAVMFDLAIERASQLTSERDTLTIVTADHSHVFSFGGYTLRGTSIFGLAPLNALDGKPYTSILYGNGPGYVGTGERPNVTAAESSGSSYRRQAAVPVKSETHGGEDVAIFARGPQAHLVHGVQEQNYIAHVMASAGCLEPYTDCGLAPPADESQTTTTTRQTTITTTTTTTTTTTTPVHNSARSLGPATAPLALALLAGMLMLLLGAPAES
Chain of Intestinal-type alkaline phosphatase (Homo sapiens, UniProt P09923) (P09923 whole entry): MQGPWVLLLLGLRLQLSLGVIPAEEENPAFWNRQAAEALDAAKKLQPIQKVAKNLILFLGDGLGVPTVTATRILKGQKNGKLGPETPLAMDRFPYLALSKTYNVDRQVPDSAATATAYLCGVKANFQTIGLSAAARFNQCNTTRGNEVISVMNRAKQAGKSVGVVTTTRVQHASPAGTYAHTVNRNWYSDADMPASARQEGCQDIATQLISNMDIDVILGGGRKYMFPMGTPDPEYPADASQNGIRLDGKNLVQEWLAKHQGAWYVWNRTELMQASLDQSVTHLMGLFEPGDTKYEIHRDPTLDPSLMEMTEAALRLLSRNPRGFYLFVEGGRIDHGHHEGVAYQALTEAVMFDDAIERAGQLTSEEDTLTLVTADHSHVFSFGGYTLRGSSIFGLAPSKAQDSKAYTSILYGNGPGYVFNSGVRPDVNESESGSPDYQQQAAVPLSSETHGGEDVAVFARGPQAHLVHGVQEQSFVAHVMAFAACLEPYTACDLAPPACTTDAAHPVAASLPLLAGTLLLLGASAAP

SMILES: NS(=O)(=O)c1ccc(NC(=S)NC(=O)/C=C/c2ccco2)cc1
- IC50 [1]: 1.87 µM (active)
- IC50 [2]: > 100 µM (inactive)
- IC50 [3]: 8.09 µM (active)

SMILES: Oc1[nH]c2ccccc2c1N=NC(S)=NCC1CCCO1 (stereo not given)
- IC50 [4]: 0.967 µM (active)
- IC50 (Bcl-2-related protein A1): > 20 µM (inactive)
- IC50 [5]: 1.73 µM (active)
- EC50 [6]: > 195 µM (not active)

SMILES: O=C(CCCCCN1C(=O)c2ccccc2C1=O)Nc1ccc(S(=O)(=O)N2CCCCC2)cc1
- IC50 [4]: 1.34 µM (active)
- IC50 (Bcl-2-related protein A1): > 20 µM (inactive)
- IC50 [5]: 0.982 µM (active)
- IC50 [7]: 2.38 µM (not active)

SMILES: CCOC(=O)c1cc(-c2ccncc2)nc2c1c(C)nn2C
- IC50 [4]: 5.32 µM (active)
- IC50 (Bcl-2-related protein A1): > 20 µM (inactive)
- IC50 [5]: 11.3 µM (active)

SMILES: CN1C/C(=C/c2cccnc2)C(=O)/C(=C/c2cccnc2)C1
- IC50 (cells): 16.8 µM (active)
- CC50 [8]: 6.26 µM (active)
- AC50 [9]: 5.31 µM (active)
- CC50 [10]: 8.54 µM (active)
- CC50 [11]: > 20 µM (active)

SMILES: O=C(CCl)Nc1ccccc1Sc1ccc(Cl)cc1
- IC50 (HEK293 [12]): > 20 µM (inactive)
- IC50 (HEK293 [13]): 4.56 µM (active)
- EC50 (HEK293 [14]): 7.79 µM (active)
- IC50 (HEK293 [15]): 9.91 µM (active)
- IC50 (HEK293 [16]): > 20 µM (inactive)
- EC50 [17]: 6.69 µM (active)
